Test results as given in BindingDB's records for doi:10.1016/j.bmcl.2003.08.010 (University of Manchester, 2003).

Assay: Inhibitory activity against Escherichia coli thymidine phosphorylase

With `C=CCNC(=S)NC=C1C(=O)NC(=O)NC1=O` [1-Allyl-3-(2,4,6-trioxo-tetrahydro-pyrimidin-5-ylidenemethyl)-thiourea] the IC50 was 94.8 µM.
